Measurements: patent publication US12576047B2, “Telomerase activating compounds for use in fertility and related applications” (Neuromagen Pharma Ltd, priority 2017, dated 2026)
Entries after “also recorded” stand apart in the source; their conditions may differ.

Experiments:
[1] = tested on: CREM; assay: CREM expression in X-ray irradiated testis; type: in vivo, mouse; conditions: X-ray 2.5 Gy then injection, 12 hrs
Method: (§1) Toward this end, ICR mice (3 months old) were injected with 6 mg/kg of Compound 79, Compound 68 or Compound 70, or mice were subjected to X-ray radiation (2.5 Gy) followed by immediately injection of the respective compounds. Control mice were untreated or vehicle treated with or without exposure to X-ray radiation. The testes were removed 12 hrs after treatments and subjected to protein extracts or total RNA preparations for the examination of telomerase activity by TRAP assay, telomerase expression by Western blot and real time PCR. Testes were also taken for immunohistochemical and immunofluorescence analysis with various spermatogenesis markers. Epididymis was also taken for sperm count.

[2] = tested on: sperm; assay: Sperm head morphology after X-ray radiation; type: in vivo, mouse; conditions: X-ray 2.5 Gy, single S.C. injection 6 mg/kg, 12 hours
Method: Three-month old mice were irradiated with X-ray (2.5 Gy) and treated with a single S.C. injection of 6 mg/kg of compound 68 or 70. Mice were sacrificed 12 hours later and sperm were removed from the epididymis and stained with eosin. The number of morphologically defective sperm (head morphology) were quantified and presented as a percentage value of the total sperm count (N=6 mice per group) (FIG. 26A). FIG. 26B provides a light micrograph showing healthy and defective sperm head morphology observed. The arrows labeled 1 and 2 point to defective sperm head morphology, and the arrows labeled 3 and 4 point to healthy sperm head morphology

[3] = tested on: LH; assay: LH expression by RT-PCR in pituitary gland cells; type: cell-based, mouse; conditions: 50 nM, 12 hours, vs untreated
Method: (§2) FIGS. 29A, 29B, 29C and 29D: The embodied compounds affect the expression of gonadotropin hormones in pituitary gland cells. Cells (L T2) derived from the mouse pituitary gland were assessed for their secretion of LH and FSH at 6 (FIGS. 29A and 29B) and 12 hours (FIGS. 29C and 29D) following treatment with the indicated embodied compounds (50 nM). FSH and LH expression was determined by RT-PCR, and quantified from 5 different experiments, as assessed for significance, using the t test, one way ANOVA.

[4] = target: T1, telomerase (Rattus norvegicus, UniProt Q673L6); assay: TRAP assay of telomerase activity in granulosa cells; type: cell-based; conditions: 50 nM and 200 nM for 6 hours
T1 construct: Protein extracts prepared from these cells served for telomerase activity measurement; endogenous in cells; host or cells: immortalized rat granulosa cells expressing FSH receptor
T1 sequence (Q673L6 whole entry): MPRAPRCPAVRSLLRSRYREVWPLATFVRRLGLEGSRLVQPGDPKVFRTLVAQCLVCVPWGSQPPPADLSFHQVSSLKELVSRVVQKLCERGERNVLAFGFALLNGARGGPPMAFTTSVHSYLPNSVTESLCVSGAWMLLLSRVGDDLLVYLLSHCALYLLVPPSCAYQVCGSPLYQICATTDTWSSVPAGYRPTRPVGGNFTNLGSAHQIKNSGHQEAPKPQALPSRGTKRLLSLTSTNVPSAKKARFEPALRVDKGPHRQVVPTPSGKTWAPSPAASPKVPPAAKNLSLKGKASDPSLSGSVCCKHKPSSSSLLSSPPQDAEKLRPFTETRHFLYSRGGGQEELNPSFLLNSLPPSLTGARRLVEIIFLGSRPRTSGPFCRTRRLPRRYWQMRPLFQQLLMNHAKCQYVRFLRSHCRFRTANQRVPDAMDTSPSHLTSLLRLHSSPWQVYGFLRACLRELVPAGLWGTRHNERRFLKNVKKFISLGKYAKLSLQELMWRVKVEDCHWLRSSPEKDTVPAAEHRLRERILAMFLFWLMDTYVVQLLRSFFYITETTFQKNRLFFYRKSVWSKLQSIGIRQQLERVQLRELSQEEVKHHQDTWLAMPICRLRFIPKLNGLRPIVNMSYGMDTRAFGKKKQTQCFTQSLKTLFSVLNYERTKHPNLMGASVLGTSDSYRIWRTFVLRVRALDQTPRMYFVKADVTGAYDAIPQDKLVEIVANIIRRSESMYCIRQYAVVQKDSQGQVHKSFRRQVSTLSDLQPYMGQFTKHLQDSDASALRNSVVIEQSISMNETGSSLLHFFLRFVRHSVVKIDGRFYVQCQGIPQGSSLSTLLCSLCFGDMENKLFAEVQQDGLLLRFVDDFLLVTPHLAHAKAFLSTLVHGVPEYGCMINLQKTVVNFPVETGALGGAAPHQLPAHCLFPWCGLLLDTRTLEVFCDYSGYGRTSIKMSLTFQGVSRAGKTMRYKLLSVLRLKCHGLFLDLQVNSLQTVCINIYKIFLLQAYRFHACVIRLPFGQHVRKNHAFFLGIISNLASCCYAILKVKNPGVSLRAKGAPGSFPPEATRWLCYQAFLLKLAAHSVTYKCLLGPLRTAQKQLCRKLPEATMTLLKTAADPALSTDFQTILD
Method: (§3) Immortalized rat granulosa cells expressing FSH receptor were treated with either pregnant mare serum gonadotropin (PMSG), or the indicated compounds, or both for 6 hours. Protein extracts prepared from these cells served for telomerase activity measurement using a telomere repeat amplification protocol (TRAP) assay.
(§4) Briefly, protein extract incubated with oligonucleotide, which serves as a template for telomerase (TS), for 45 minutes at 30° C. followed by PCR with reverse primer (ACX) and internal control. PCR products were separated on 4.5% agarose gel. RNA extracts were used for cDNA synthesis and quantitative real time PCR with specific primers to Telomerase reverse transcriptase (TERT), Steroidogenic acute regulatory protein (StAr) and β-actin as a reference gene. To measure progesterone levels secreted by the cells, granulosa cells were cultured with or without 1 IU/mL PMSG and DMSO, Compound 79 50 nM or compound 70 50 nM in the presence of 100 nM dexamethasone. After 24 hours progesterone levels cell-culture medium were determined by radioimmunoassay (RIA). For cell proliferation measurement, 1×10^5 cells were seeded in a 96 wells plate with 1 IU/mL PMSG and DMSO, Compound 79 50 nM or Compound 70 50 nM. After 24 hours cells viability was measured by XTT proliferation assay.

[5] = tested on: Steroidogenic acute regulatory protein (StAr); assay: StAr relative mRNA levels by qRT-PCR in granulosa cells; type: cell-based, rat; conditions: 50 nM for 6 hours
Method: as §3, §4

[6] = tested on: mouse ovary; assay: Hematoxylin-eosin histology of mouse ovary; type: in vivo
Description: The ovaries were weighted; one was taken for protein extraction for measuring telomerase activity by TRAP assay, and the other one for the histological examination using hematoxylin-eosin staining of the ovary and its follicles.
The mice ovaries were removed and fixed with 4% paraformaldehyde overnight, dehydrated in increasing ethanol concentrations to xylene, and embedded in paraffin. A rotary microtome was used to produce 5 μm sections, which were mounted on Superfrost plus slides. The sections were dried and heated at 37° C. overnight and stored in dry place. Paraffin-embedded sections were deparaffinized in xylene and rehydrated in decreasing concentrations of ethanol. Then the sections stained with hematoxylin-eosin or subjected to immunochemical and Immunofluorescent assays [Liani-Leibson, K., I. Har-Vardi, and E. Priel, Inhibition of topoisomerase I by anti-cancer drug altered the endometrial cyclicity and receptivity. Curr Mol Med, 2014. 14(1): p. 141-50].

[7] = tested on: FSH; assay: FSH expression by RT-PCR in pituitary gland cells; type: cell-based, mouse; conditions: 50 nM, 6 hours, vs untreated
Method: as §2

[8] = tested on: ICR mice; assay: Sperm count from the epididymis, with or without X-ray radiation; type: in vivo, mouse
Method: as §1, with “The testes were removed 12 hrs after treatments and subjected to protein extracts or total RNA preparations for the examination of telomerase activity by TRAP assay, telomerase expression by Western blot and real time PCR.” left out

[9] = tested on: old mice (16 months old); assay: Sperm count and motility in old mice; type: in vivo, mouse; conditions: single injection 6 mg/Kg
[10] = tested on: γ-H2AX; assay: γ-H2AX immunofluorescence of testis; type: in vivo, mouse; conditions: 12 hrs
Method: as §1

[11] = tested on: Telomerase reverse transcriptase (TERT); assay: TERT relative mRNA levels by qRT-PCR in granulosa cells; type: cell-based, rat; conditions: 50 nM and 200 nM for 6 hours
Method: as §3, §4

[12] = tested on: ovarian tissue; assay: Ovarian tissue histopathology following irradiation; type: in vivo; conditions: treatment following X-ray irradiation
Description: FIGS. 28A, 28B and 28C: Ovarian tissue histopathology following irradiation (FIG. 28A), followed by treatment with Compound 70 (FIG. 28C) or DMSO carrier (FIG. 28B).

## COc1c(Br)cc(C(C)(c2cc(Br)c(OC)c(Br)c2)c2cc(Br)c(OC)c(Br)c2)cc1Br [Compound 70]
[1]
  CREM expression in testis: restored the expression of the spermatogenesis markers
[2]
  number of defective sperm cells (head morphology): reduction in the number of defective sperm cells
[3]
  LH expression: increased LH production above untreated levels
[4]
  telomerase activity (TRAP): increased expression in a dose-dependent fashion; also recorded: further increased telomerase activity and expression in granulosa cells as compared to compound 79
[5]
  expression of StAr: increased expression of StAr
[6]; 6 mg/Kg single dose at met-estrus stage, 12 hours
  ovary histology (follicles, granulosa cells): more developed follicles (white arrow) and plurality of layers of granulosa cells (GC) around the oocytes
[6]; 6 mg/Kg single dose at pro-estrus and estrus stages, 12 hrs
  ovary histology (corpus luteum): more corpus luteum (CL) than in the control group
[7]
  FSH expression: decreased FSH expression relative to untreated samples
[8]; irradiated mice, 9 and 30 days post irradiation
  sperm count: increased sperm count at 9 and 30 days post irradiation
[8]; non-irradiated mice, 12 hrs post treatment, compared to DMSO
  sperm cells number from the epididymis: a significant increase
[9]
  sperm counts: increased
  sperm motility: increased
[10]; compound only, without irradiation
  DNA damage (γ-H2AX) in testis: did not cause DNA damage
[10]; irradiated mice (2.5 Gy)
  expression levels of γ-H2AX in testis: a decrease in the expression levels of γ-H2AX
[11]
  TERT relative mRNA levels: increased expression in a dose-dependent fashion
[12]
  ovarian tissue histopathology (H&E): clearly rescues ovarian tissue exposed to radiation
